Earlier results, collected in patent publication US10028927B2, “Topical pharmaceutical formulation” (Futura Medical Developments Limited, priority 2015, dated 2018).
Structures can show the parent of a compound that is named as a salt.

Assays:
[1] = saturated systems in polyethylene glycol and propylene glycol
[2] = in vivo

For `O=C(O)Cc1ccccc1Nc1c(Cl)cccc1Cl` [diclofenac acid], the “saturated solubility in polyethylene glycol” value (polyethylene glycol) is given as 11.18 % w/w, the “saturated solubilities in propanol or iso-propanol” value (propanol or iso-propanol) is given as 3-4% and the “saturated solubility in pure ethanol” value (pure ethanol) is given as 5 % w/w. For the same compound, the “diclofenac flux, polyethylene glycol versus propylene glycol systems” value [1] was “no significant difference”.

In the case of `O=C(O)Cc1ccccc1Nc1c(Cl)cccc1Cl` [diclofenac], the “systemic clearance compared with other drugs” value [2] is given as “more rapid systemic clearance compared with other drugs”.

For `O=C(O)Cc1ccccc1Nc1c(Cl)cccc1Cl` [sodium salt of diclofenac acid, diclofenac sodium], the “saturated solubility in propylene glycol” value (propylene glycol) is given as “approximately 50 % w/w”.
